{"source": "patent US12144799B2", "about": "“Method for long-term storage of chlorophyll-containing extract” (ABL CO., LTD, priority 2018, dated 2024)", "key": {"[1]": {"assay": "Storage stability test of chlorophyll a in stabilization candidate oils (HPLC content)", "settings": "chlorophyll a in the oil layer, room temperature storage, dark place", "description": "(§1) In order to analyze the content of extracted chlorophyll, high-performance liquid chromatography (HPLC) was used. Purification was performed using the Agilent 1100 Series HPLC system from AGILENT, and the column used was Shimadzu Shim-pack C18 analytical column (250 mm×4.6 mm, 5 μm, 100). The peak was detected as ultraviolet ray absorption using a diode array detector. The injection volume was […], and the flow rate was […].\n(§2) The reference material for chlorophyll a was purchased from Aldrich Chemical Co. (Milwaukee, Wis.), and was used without a further purification process.\nThe storage stability of chlorophyll a stabilization candidate materials used in the above process for chlorophyll-a was tested. Samples were collected for each storage period at various temperatures, and the content of chlorophyll a was analyzed using the HPLC system described above.\nTemperatures for the test were respectively freezing temperature (−20° C.), refrigerating temperature (4° C.), room temperature (25° C.), high temperature (50° C.), and being left at room temperature.\nIn this process, ethanol was removed. Thereafter, the obtained was stored for a predetermined period in a dark place for each temperature to collect samples for each storage period, and then the content of chlorophyll a was analyzed using the HPLC system described above."}, "[2]": {"assay": "Fractional extraction of chlorophyll a from ethanol extract into oil layer (HPLC)", "format": "physicochemical", "settings": "oil added 1:1 (50 ml) to ethanol extract of wheatgrass powder, stirred, layers separated for 2 minutes", "description": "as §1, §2"}}, "data": [{"smiles": "CC(C)=CCC/C(C)=C/CC/C(C)=C/CC/C=C(\\C)CC/C=C(\\C)CCC=C(C)C", "note": "[squalene]", "values": [{"measurement": "half-life of chlorophyll a", "setting": "[1]", "result": 7, "unit": "months"}, {"measurement": "chlorophyll a moved to / dissolved in the oil phase", "setting": "[2]", "result": "more than 80%"}]}]}
